{"source": "patent US20180009859A1", "about": "“PHARMACOLOGICAL MODULATORS OF GABAA RECEPTORS AND THEIR USE” (priority 2015, published 2018)", "key": {"hippocampal neurons [1]": {"test_system": "hippocampal neurons", "assay": "Calcium imaging of hippocampal neurons (Ca^2+ oscillations)", "type": "cell-based, rat"}, "α1EKβ2γ2 receptor mutant": {"test_system": "α1EKβ2γ2 receptor mutant", "type": "cell-based, rat"}, "α1β2γ2 GABAA receptor [2]": {"target": "T1, α1β2γ2 GABAA receptor (Rattus norvegicus, UniProt P62813+P63138)", "T1 sequence (P63138 25-474)": "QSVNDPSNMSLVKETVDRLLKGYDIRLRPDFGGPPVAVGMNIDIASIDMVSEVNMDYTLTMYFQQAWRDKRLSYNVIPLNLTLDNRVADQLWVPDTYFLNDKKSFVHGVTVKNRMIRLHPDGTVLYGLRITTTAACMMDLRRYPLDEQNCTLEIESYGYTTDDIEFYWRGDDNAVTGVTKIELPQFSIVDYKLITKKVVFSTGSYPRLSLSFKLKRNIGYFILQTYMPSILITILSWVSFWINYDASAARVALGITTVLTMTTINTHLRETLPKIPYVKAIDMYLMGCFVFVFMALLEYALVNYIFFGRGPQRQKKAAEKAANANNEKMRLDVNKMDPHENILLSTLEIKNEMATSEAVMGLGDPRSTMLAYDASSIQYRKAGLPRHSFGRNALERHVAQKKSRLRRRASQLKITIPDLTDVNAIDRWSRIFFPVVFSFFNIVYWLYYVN", "T1 sequence (P62813 28-455)": "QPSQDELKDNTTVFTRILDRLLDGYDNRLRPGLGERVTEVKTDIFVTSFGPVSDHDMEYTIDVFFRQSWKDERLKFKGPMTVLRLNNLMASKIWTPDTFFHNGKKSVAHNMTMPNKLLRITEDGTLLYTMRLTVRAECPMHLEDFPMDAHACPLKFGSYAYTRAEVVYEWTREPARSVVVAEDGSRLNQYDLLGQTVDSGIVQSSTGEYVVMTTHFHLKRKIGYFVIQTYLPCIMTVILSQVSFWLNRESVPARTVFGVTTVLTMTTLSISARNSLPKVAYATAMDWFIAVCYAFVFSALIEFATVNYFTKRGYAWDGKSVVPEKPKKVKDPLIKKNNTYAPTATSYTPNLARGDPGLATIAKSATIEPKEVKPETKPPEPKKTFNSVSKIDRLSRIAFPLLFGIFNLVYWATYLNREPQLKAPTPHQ", "T1 sequence (P18508 39-466, further chain)": "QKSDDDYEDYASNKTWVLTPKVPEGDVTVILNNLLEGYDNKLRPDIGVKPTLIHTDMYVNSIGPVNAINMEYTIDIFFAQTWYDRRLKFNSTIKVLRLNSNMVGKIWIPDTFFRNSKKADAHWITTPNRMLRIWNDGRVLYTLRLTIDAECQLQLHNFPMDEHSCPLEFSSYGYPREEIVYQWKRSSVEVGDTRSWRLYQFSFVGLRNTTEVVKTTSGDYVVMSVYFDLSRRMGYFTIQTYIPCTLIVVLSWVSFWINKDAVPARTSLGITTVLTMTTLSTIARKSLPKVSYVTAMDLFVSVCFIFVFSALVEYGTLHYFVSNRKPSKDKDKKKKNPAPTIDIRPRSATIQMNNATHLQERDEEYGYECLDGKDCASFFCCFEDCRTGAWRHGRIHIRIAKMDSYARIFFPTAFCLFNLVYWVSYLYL", "type": "cell-based", "settings": "5 μM muscimol + 100 nM sMmTX1, n=3; control 48±5s"}, "mice": {"test_system": "mice", "settings": "injection into mouse brain"}, "α1β2-containing receptor": {"target": "α1β2-containing receptor (Rattus norvegicus, UniProt P62813+P63138)", "sequence (P63138 25-474)": "as the sequence (P63138 25-474) above", "sequence (P62813 28-455)": "as the sequence (P62813 28-455) above", "type": "cell-based", "settings": "100 nM sMmTX1, −70 mV"}, "α1β2γ2 GABAA receptor [3]": {"target": "T1, α1β2γ2 GABAA receptor", "type": "cell-based"}, "hippocampal neurons [4]": {"test_system": "hippocampal neurons", "type": "cell-based, mouse"}}, "note": "“And” between values parts separate entries of the source, which are not always exact repeats. Identical values can stand only once. “Also recorded” adds a separate entry of the source. Like-named read-outs stand apart in the source and are kept apart here. Bridge positions count the residues as written; N and C are the ends."}
{"sequence": "LTCKTCPFTTCPNSESCPGGQSICYQRKWEEHRGERIERRCVANCPAFGSHDTSLLCCTRDNCN (disulfide 3-24, 6-11, 17-41, 45-57, 58-63) [sMmTX1]", "values": [{"measurement": "initial effect on Ca^2+ oscillations", "setting": "hippocampal neurons [1]", "value": "short but substantial inhibition"}, {"measurement": "frequency of Ca^2+ spikes compared to cells perfused with extracellular saline solution", "setting": "hippocampal neurons [1]; 100 nM sMmTX1 alone, n=9", "value": "105.8±4.0", "unit": "%"}, {"measurement": "effect on macroscopic conductance", "setting": "α1EKβ2γ2 receptor mutant; 300 nM muscimol", "value": "still reduces the macroscopic conductance"}, {"measurement": "effect on mutant receptor desensitization", "setting": "α1EKβ2γ2 receptor mutant; 5 μM muscimol + 100 nM sMmTX1, n=4", "value": "does not increase mutant receptor desensitization"}, {"measurement": "time constant of receptor desensitization", "setting": "α1β2γ2 GABAA receptor [2]", "value": "25 ± 3 s and 25 ± 2 s"}, {"measurement": "LD50", "setting": "mice", "value": 0.013, "unit": "mg/kg"}, {"measurement": "behavioral signs", "setting": "mice", "value": "identical mouse behavioral phenotype"}, {"measurement": "sensitivity of the receptor to toxin", "setting": "α1β2-containing receptor", "value": "sensitive"}, {"measurement": "alteration of current elicited by 50 μM muscimol", "setting": "α1β2γ2 GABAA receptor [3]", "value": "not significantly altered"}, {"measurement": "factor of current increase", "setting": "α1β2γ2 GABAA receptor [3]; 0.3 μM muscimol + 100 nM sMmTX1, n=5", "value": "2.7±0.18"}, {"measurement": "factor of current increase", "setting": "α1β2γ2 GABAA receptor [3]; 3 μM muscimol + 10 nM toxin", "value": "1.28±0.12"}, {"measurement": "factor of current increase", "setting": "α1β2γ2 GABAA receptor [3]; 3 μM muscimol + 100 nM toxin", "value": "1.33±0.13"}, {"measurement": "effect on currents and desensitization", "setting": "α1β2γ2 GABAA receptor [3]; 3 μM muscimol + 300 nM sMmTX1, −70 mV", "value": "currents are potentiated and receptor desensitization tends to accelerate"}, {"measurement": "factor of current increase", "setting": "α1β2γ2 GABAA receptor [3]; 3 μM muscimol + 300 nM toxin", "value": "1.60±0.11"}, {"measurement": "frequency of action potentials", "setting": "hippocampal neurons [4]; 100 nM sMmTX1, current clamp, n=5", "value": "substantial increase; also recorded: significantly increased"}, {"measurement": "action potential amplitude and time-to-peak", "setting": "hippocampal neurons [4]; 100 nM sMmTX1, n=5", "value": "do not reveal a significant change"}, {"measurement": "amplitude of mini inhibitory postsynaptic currents (mIPSCs)", "setting": "hippocampal neurons [4]; 300 nM muscimol and 100 nM sMmTX1, with TTX, DNQX, APV, n=3", "value": "reduces the amplitude"}, {"measurement": "currents elicited by 30 ms puffs of 300 nM muscimol", "setting": "hippocampal neurons [4]; continuous application of 100 nM sMmTX1", "value": "induces a decrease"}, {"measurement": "duration of burst-like postsynaptic currents", "setting": "hippocampal neurons [4]; sMmTX1, voltage clamp, n=5", "value": "considerable increase"}]}
